Reference: patent US9290451B2 (Hoffmann-La Roche Inc., priority 2011, dated 2016)
pEC50: −log10 of the molar value.

Legend:
human CB2 receptors = human CB2 receptors (Homo sapiens (Human), UniProt P34972); test: cAMP assay, CHO cells expressing human CB2 receptors; assay type: cell-based; details: CHO cells expressing human CB2, cAMP; read-out: human CB2 EC50
Outline: (§1)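 Read-out is TR-FRET (excitation 355 nm, emission 730/645 nm) after cell lysis, with cAMP content taken from a standard curve and EC50 calculated. Cells were pretreated with 1 mM IBMX in Krebs Ringer bicarbonate buffer, then incubated with compounds for 30 min at 30 °C.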

human CB1 receptors = human CB1 receptors (Homo sapiens (Human), UniProt P21554); test: cAMP assay, CHO cells expressing human CB1 receptors; assay type: cell-based; details: CHO cells expressing human CB1, cAMP; read-out: human CB1 EC50
human CB1 receptors, sequence (P21554 whole entry): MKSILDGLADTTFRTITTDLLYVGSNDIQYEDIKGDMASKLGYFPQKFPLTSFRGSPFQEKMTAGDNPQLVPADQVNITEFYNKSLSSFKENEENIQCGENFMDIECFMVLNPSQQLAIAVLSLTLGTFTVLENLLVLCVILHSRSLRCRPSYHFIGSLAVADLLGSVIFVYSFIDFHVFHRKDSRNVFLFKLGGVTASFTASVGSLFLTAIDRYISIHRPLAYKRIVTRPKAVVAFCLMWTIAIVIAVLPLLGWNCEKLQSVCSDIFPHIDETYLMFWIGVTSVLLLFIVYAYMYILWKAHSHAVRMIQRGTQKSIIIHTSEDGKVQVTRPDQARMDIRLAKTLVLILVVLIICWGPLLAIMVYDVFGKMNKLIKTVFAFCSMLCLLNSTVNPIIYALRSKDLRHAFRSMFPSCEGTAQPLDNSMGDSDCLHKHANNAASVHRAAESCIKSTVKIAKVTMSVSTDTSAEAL
Outline: as §1

human CB2 receptors, sequence (P34972 whole entry): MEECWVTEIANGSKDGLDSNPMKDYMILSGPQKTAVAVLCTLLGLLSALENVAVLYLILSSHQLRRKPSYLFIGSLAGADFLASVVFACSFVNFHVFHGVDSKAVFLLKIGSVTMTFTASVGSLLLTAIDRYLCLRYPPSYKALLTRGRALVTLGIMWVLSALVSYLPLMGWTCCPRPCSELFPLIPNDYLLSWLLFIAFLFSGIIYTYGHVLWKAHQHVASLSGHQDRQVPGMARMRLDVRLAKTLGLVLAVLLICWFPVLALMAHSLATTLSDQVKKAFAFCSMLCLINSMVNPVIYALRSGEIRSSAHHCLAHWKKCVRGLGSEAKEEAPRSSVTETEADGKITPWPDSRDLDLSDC

SMILES | pEC50 (human CB2 receptors) | pEC50 (human CB1 receptors)
COC(=O)C(C)(C)NC(=O)c1ccc(N2CCCC2)c(OCC2CC2)n1 [Example 27, 2-[(6-Cyclopropylmethoxy-5-pyrrolidin-1-yl-pyridine-2-carbonyl)-amino]-2-methyl-propionic acid methyl ester] | 8.34 | < 5.00
Cc1ccc(C(=O)NC(C)(C)c2ncco2)nc1-c1cccc(Cl)c1 [Example 49, 6-(3-Chloro-phenyl)-5-methyl-pyridine-2-carboxylic acid (1-methyl-1-oxazol-2-yl-ethyl)-amide] | 6.51 | < 5.00
CC(C)(NC(=O)c1ccc(C2CCCC2)c(-c2cccc(Cl)c2)n1)c1nccs1 [Example 128, 6-(3-Chloro-phenyl)-5-cyclopentyl-pyridine-2-carboxylic acid (1-methyl-1-thiazol-2-yl-ethyl)-amide] | 6.62 | < 5.00
O=C(N[C@@H](c1cccnc1)C(F)(F)F)c1ccc(C2CC2)c(OCC2CC2)n1 [Example 217, (S)-5-Cyclopropyl-6-(cyclopropylmethoxy)-N-(2,2,2-trifluoro-1-(pyridin-3-yl)ethyl)-picolinamide] | 7.39 | < 5.00
CCC(CC)(NC(=O)c1ccc(C2CC2)c(OCC[C@@H](O)C(F)(F)F)n1)C(=O)NC [Example 314, 5-Cyclopropyl-6-((R)-4,4,4-trifluoro-3-hydroxy-butoxy)-pyridine-2-carboxylic acid (1-ethyl-1-methylcarbamoyl-propyl)-amide] | 7.79 | 5.90
Cc1nc([C@H](CC(C)C)NC(=O)c2cccc(S(=O)(=O)CC(C)C)n2)no1 [Example 335, 6-(2-Methyl-propane-1-sulfonyl)-pyridine-2-carboxylic acid [(S)-3-methyl-1-(5-methyl-[1,2,4]oxadiazol-3-yl)-butyl]-amide] | 6.02 | < 5.00
CC(C)C[C@H](NC(=O)c1ccc(N2CC(F)(F)C2)c(OCC2CC2)n1)C(N)=O [Example 132, 6-Cyclopropylmethoxy-5-(3,3-difluoro-azetidin-1-yl)-pyridine-2-carboxylic acid ((S)-1-carbamoyl-3-methyl-butyl)-amide] | 9.10 | 5.95
Cc1nc([C@H](NC(=O)c2ccc(C3CC3)c(OCC3CC3)n2)C2CC2)no1 [Example 197, (−)-5-Cyclopropyl-6-cyclopropylmethoxy-pyridine-2-carboxylic acid [cyclopropyl-(5-methyl-[1,2,4]oxadiazol-3-yl)-methyl]-amide] | 7.48 | < 5.00
CC(C)(NC(=O)c1ccc(N2CCCC2)c(OCC2CC2)n1)C1=NCCO1 [Example 63, 6-Cyclopropylmethoxy-5-pyrrolidin-1-yl-pyridine-2-carboxylic acid [1-(4,5-dihydro-oxazol-2-yl)-1-methyl-ethyl]-amide] | 6.95 | < 5.00
Cc1nc(C(C)(C)NC(=O)c2cccc(-c3ccc(Cl)c(F)c3)n2)no1 [Example 267, 6-(4-Chloro-3-fluoro-phenyl)-pyridine-2-carboxylic acid [1-methyl-1-(5-methyl-[1,2,4]oxadiazol-3-yl)-ethyl]-amide] | 7.58 | < 5.00
CC(C)[C@@](C)(CO)NC(=O)c1ccc(C2CC2)c(OCC2CC2)n1 [Example 279, 5-Cyclopropyl-6-cyclopropylmethoxy-pyridine-2-carboxylic acid ((S)-1-hydroxymethyl-1,2-dimethyl-propyl)-amide] | 7.64 | < 5.00
Cc1nc([C@H](NC(=O)c2cccc(-c3ccc(F)c(Cl)c3)n2)C2CC2)no1 [Example 261, 6-(3-Chloro-4-fluoro-phenyl)-pyridine-2-carboxylic acid [(+)-cyclopropyl-(5-methyl-[1,2,4]oxadiazol-3-yl)-methyl]-amide] | 8.00 | 6.59
CC(C)(NC(=O)c1ccc(N2CC(O)C2)c(OCC2CC2)n1)c1nccs1 [Example 75, 6-Cyclopropylmethoxy-5-(3-hydroxy-azetidin-1-yl)-pyridine-2-carboxylic acid (1-methyl-1-thiazol-2-yl-ethyl)-amide] | 7.82 | < 5.00
Cc1nc(C(C)(C)NC(=O)c2ccc(C3CC3)c(OCc3ccccn3)n2)no1 [Example 199, 5-Cyclopropyl-N-(2-(5-methyl-1,2,4-oxadiazol-3-yl)propan-2-yl)-6-(pyridin-2-ylmethoxy)picolinamide] | 6.82 | < 5.00
